Molecular target: T1, USP2 (Homo sapiens, UniProt O75604)
T1 sequence (O75604 1-605): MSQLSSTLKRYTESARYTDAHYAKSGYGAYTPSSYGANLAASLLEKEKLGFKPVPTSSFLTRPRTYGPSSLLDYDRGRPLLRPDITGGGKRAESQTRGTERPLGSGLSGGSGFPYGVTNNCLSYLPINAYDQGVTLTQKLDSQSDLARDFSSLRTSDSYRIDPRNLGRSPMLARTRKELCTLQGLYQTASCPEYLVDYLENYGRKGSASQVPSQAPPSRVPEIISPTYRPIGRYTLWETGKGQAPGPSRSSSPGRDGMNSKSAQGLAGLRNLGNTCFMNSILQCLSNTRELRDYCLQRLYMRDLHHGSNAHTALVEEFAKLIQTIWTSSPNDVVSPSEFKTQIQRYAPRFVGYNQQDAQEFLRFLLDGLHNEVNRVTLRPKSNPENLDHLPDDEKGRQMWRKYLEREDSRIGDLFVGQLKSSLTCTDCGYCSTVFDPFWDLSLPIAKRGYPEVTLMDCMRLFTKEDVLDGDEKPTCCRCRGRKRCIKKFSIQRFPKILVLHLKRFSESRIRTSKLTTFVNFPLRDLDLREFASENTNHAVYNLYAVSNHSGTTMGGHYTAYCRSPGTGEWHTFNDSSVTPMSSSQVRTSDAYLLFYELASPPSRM
Assay: biochemical
Set-up: Ubiquigent DUB profiler selectivity panel, remaining enzyme activity as % of control
Conditions: read-out: % of control remaining
Summary of the method: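 CMPD-39 selectivity was profiled at 1-100 μM across >40 DUBs. Cellular engagement used 2 h CMPD-39 pretreatment, then HA-Ub-PA probe for 10 min at 37°C, with USP30 band shift on immunoblot. TOMM20 ubiquitylation was blotted in YFP-PRKN hTERT-RPE1 cells after 1 h antimycin A/oligomycin A (1 μM each).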

For `CC(C)(C)NS(=O)(=O)c1ccc(NC(=O)[C@H](Cc2ccccc2)NC(=O)c2ccc(F)cc2)cc1` [compound 39, CMPD-39], the remaining activity at 1 µM was 107%, the remaining activity at 10 µM was 97.7% and the remaining activity at 100 µM was 101%.

Reference: paper PMC8645336, “Benchmarking a highly selective USP30 inhibitor for enhancement of mitophagy and pexophagy” (Life Science Alliance, 2021)
